Reference: Sander's compilation of Henry's law constants (doi:10.1021/es020599y)

Experiment: Henry solubility constant Hcp at 298.15 K (mol/(m3 Pa))
Details: reference: Bamford et al. (2002)

Structure (SMILES)	Henry solubility constant Hcp
Clc1cc(-c2ccc(Cl)c(Cl)c2Cl)cc(Cl)c1Cl [2,3,3',4,4',5'-hexachlorobiphenyl]	0.034
Clc1ccc(-c2cc(Cl)c(Cl)c(Cl)c2)cc1 [3,4,4',5-tetrachlorobiphenyl]	0.041
Clc1cc(Cl)c(-c2cc(Cl)c(Cl)c(Cl)c2Cl)c(Cl)c1 [2,2',3,4,4',5,6'-heptachlorobiphenyl]	0.017
Clc1ccccc1-c1c(Cl)cccc1Cl [2,2',6-trichlorobiphenyl]	0.033
Clc1cc(-c2cc(Cl)c(Cl)c(Cl)c2Cl)c(Cl)c(Cl)c1Cl [2,2',3,3',4,4',5,5'-octachlorobiphenyl]	0.1
Clc1ccc(-c2cccc(Cl)c2Cl)cc1Cl [2,3,3',4'-tetrachlorobiphenyl]	0.038
Clc1ccccc1-c1cccc(Cl)c1Cl [2,2',3-trichlorobiphenyl]	0.042
Clc1cc(Cl)c(-c2cc(Cl)c(Cl)c(Cl)c2)cc1Cl [2,3',4,4',5,5'-hexachlorobiphenyl]	0.027
Clc1cccc(-c2cc(Cl)ccc2Cl)c1 [2,3',5-trichlorobiphenyl]	0.035
Clc1cccc(-c2cccc(Cl)c2Cl)c1Cl [2,2',3,3'-tetrachlorobiphenyl]	0.036
Clc1ccc(-c2cc(Cl)ccc2Cl)c(Cl)c1 [2,2',4,5'-tetrachlorobiphenyl]	0.027
Clc1cc(-c2c(Cl)ccc(Cl)c2Cl)c(Cl)c(Cl)c1Cl [2,2',3,3',4,5,6'-heptachlorobiphenyl]	0.022
Clc1ccc(-c2c(Cl)c(Cl)cc(Cl)c2Cl)c(Cl)c1Cl [2,2',3,3',4,5',6'-heptachlorobiphenyl]	0.021
Clc1ccc(-c2c(Cl)ccc(Cl)c2Cl)cc1Cl [2,3,3',4',6-pentachlorobiphenyl]	0.023
Clc1cccc(-c2ccccc2)c1Cl [2,3-dichlorobiphenyl]	0.043
Clc1cc(Cl)c(Cl)c(-c2ccc(Cl)c(Cl)c2)c1 [2,3,3',4',5-pentachlorobiphenyl]	0.043
Clc1cc(Cl)c(-c2ccccc2Cl)cc1Cl [2,2',4,5-tetrachlorobiphenyl]	0.027
Clc1cccc(-c2ccc(Cl)c(Cl)c2Cl)c1Cl [2,2',3,3',4-pentachlorobiphenyl]	0.027
Clc1ccc(-c2cccc(Cl)c2Cl)c(Cl)c1 [2,2',3,4'-tetrachlorobiphenyl]	0.028
Clc1cc(Cl)c(-c2cccc(Cl)c2Cl)cc1Cl [2,2',3,4',5'-pentachlorobiphenyl]	0.023
Clc1cc(-c2cc(Cl)c(Cl)c(Cl)c2)cc(Cl)c1Cl [3,3',4,4',5,5'-hexachlorobiphenyl]	0.047
Clc1cccc(-c2c(Cl)cccc2Cl)c1Cl [2,2',3,6'-tetrachlorobiphenyl]	0.03
Clc1ccc(-c2ccccc2Cl)c(Cl)c1 [2,2',4-trichlorobiphenyl]	0.033
Clc1ccc(-c2c(Cl)cccc2Cl)c(Cl)c1Cl [2,2',3,4,6'-pentachlorobiphenyl]	0.022
Clc1cccc(-c2ccccc2Cl)c1 [2,3'-dichlorobiphenyl]	0.043
Clc1cc(-c2c(Cl)c(Cl)cc(Cl)c2Cl)cc(Cl)c1Cl [2,3,3',4',5,5',6-heptachlorobiphenyl]	0.032

Structure (SMILES)	Henry solubility constant Hcp
Clc1ccc(Cl)c(-c2ccccc2)c1Cl [2,3,6-trichlorobiphenyl]	0.033
Clc1ccc(-c2cc(Cl)ccc2Cl)cc1 [2,4',5-trichlorobiphenyl]	0.034
Clc1cc(Cl)c(-c2c(Cl)cc(Cl)c(Cl)c2Cl)cc1Cl [2,2',3,4,4',5',6-heptachlorobiphenyl]	0.017
Clc1cc(Cl)c(Cl)c(-c2cccc(Cl)c2Cl)c1 [2,2',3,3',5-pentachlorobiphenyl]	0.023
Clc1cc(Cl)c(-c2c(Cl)ccc(Cl)c2Cl)cc1Cl [2,2',3,4',5',6-hexachlorobiphenyl]	0.015
Clc1ccc(-c2cc(Cl)c(Cl)c(Cl)c2Cl)cc1Cl [2,3,3',4,4',5-hexachlorobiphenyl]	0.029
Clc1ccc(Cl)c(-c2ccc(Cl)c(Cl)c2)c1 [2,3',4',5-tetrachlorobiphenyl]	0.033
Clc1ccc(-c2cc(Cl)cc(Cl)c2Cl)cc1 [2,3,4',5-tetrachlorobiphenyl]	0.025
Clc1ccc(-c2ccc(Cl)c(Cl)c2Cl)c(Cl)c1 [2,2',3,4,4'-pentachlorobiphenyl]	0.023
Clc1cc(Cl)c(-c2ccc(Cl)c(Cl)c2)c(Cl)c1 [2,3',4,4',6-pentachlorobiphenyl]	0.015
Clc1ccc(-c2cc(Cl)c(Cl)c(Cl)c2Cl)c(Cl)c1 [2,2',3,4,4',5-hexachlorobiphenyl]	0.045
Clc1ccc(-c2cccc(Cl)c2)cc1 [3,4'-dichlorobiphenyl]	0.049
Clc1ccc(-c2ccccc2)c(Cl)c1 [2,4-dichlorobiphenyl]	0.037
Clc1ccc(-c2c(Cl)cc(Cl)c(Cl)c2Cl)cc1Cl [2,3,3',4,4',6-hexachlorobiphenyl]	0.021
Clc1ccc(-c2cc(Cl)c(Cl)cc2Cl)c(Cl)c1 [2,2',4,4',5-pentachlorobiphenyl]	0.021
Clc1cc(Cl)c(Cl)c(-c2cc(Cl)c(Cl)cc2Cl)c1 [2,2',3,4',5,5'-hexachlorobiphenyl]	0.017
Clc1ccccc1-c1ccccc1Cl [2,2'-dichlorobiphenyl]	0.046
Clc1ccc(Cl)c(-c2cc(Cl)c(Cl)c(Cl)c2Cl)c1 [2,2',3,4,5,5'-hexachlorobiphenyl]	0.02
Clc1cccc(-c2ccc(Cl)cc2Cl)c1 [2,3',4-trichlorobiphenyl]	0.033
Clc1ccc(Cl)c(-c2c(Cl)ccc(Cl)c2Cl)c1 [2,2',3,5',6-pentachlorobiphenyl]	0.021
Clc1ccc(Cl)c(-c2c(Cl)ccc(Cl)c2Cl)c1Cl [2,2',3,3',6,6'-hexachlorobiphenyl]	0.009
Clc1ccc(-c2ccccc2Cl)cc1Cl [2,3',4'-trichlorobiphenyl]	0.036
Clc1ccc(-c2c(Cl)ccc(Cl)c2Cl)cc1 [2,3,4',6-tetrachlorobiphenyl]	0.025
Clc1cc(Cl)c(Cl)c(-c2c(Cl)ccc(Cl)c2Cl)c1 [2,2',3,3',5,6'-hexachlorobiphenyl]	0.015
Clc1ccc(-c2c(Cl)ccc(Cl)c2Cl)c(Cl)c1 [2,2',3,4',6-pentachlorobiphenyl]	0.019
